Data published in patent publication US20110172147A1, “NEUROPEPTIDE-2 RECEPTOR (Y-2R) AGONISTS” (priority 2009, published 2011).
Read-outs that look alike come from different tables or passages of the source.

Assays:
[1] = target: T1, Y5R (Homo sapiens, UniProt Q15761); assay: CaFlux Assay (FLIPR), Y5R; type: cell-based
T1 sequence (Q15761 1-445): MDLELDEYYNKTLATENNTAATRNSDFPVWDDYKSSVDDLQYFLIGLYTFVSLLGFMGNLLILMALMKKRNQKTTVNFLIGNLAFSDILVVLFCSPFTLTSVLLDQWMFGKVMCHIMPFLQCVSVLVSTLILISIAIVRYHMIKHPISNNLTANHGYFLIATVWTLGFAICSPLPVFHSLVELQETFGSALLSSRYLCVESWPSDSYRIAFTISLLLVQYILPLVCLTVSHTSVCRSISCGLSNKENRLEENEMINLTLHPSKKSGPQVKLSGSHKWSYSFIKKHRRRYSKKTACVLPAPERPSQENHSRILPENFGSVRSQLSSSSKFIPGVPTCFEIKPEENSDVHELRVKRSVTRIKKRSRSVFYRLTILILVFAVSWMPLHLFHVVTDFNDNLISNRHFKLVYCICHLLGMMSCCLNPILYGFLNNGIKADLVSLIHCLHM

[2] = target: T2, hNPY2R (Homo sapiens, UniProt P49146); assay: cAMP Agonist Assay, HEK293/hNPY2R; type: cell-based; parameters: expressed in transfected cells; host or cells: HEK293/hNPY2R (G418 selection)
T2 sequence (P49146 1-381): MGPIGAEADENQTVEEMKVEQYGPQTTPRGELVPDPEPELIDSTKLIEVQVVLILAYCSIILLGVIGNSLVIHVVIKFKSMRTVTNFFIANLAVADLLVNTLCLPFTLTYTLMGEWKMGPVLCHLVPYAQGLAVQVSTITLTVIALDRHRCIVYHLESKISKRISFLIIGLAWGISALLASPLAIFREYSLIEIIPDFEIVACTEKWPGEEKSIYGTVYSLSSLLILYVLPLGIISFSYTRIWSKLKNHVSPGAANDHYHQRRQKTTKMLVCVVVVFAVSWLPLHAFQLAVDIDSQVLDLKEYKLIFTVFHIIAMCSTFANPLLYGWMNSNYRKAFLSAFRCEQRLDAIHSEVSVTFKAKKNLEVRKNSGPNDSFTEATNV
How it was run: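 Intracellular cAMP quantified by luminescent competitive ELISA after a 30 min room-temperature treatment of overnight-plated HEK293/hNPY2R cells with compound in medium containing 5 μM forskolin, 0.5 mM IBMX and 1.1% DMSO; four replicates per concentration.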

[3] = FLIPR; read-out: Y5R EC50 (nM) FLIPR
[4] = HEK293/hNPY2R cells, Forskolin 5 μM; read-out: Y2R EC50 (nM) cAMP

| EC50 [1, 3] [nM] | EC50 [2, 4] [nM] | Compound | EC50 ([1]; read-out: Y5R EC50 (nM) FLIPR; FLIPR) [nM] | EC50 ([2]; read-out: Y2R EC50 (nM) cAMP; HEK293/hNPY2R cells, Forskolin 5 μM) [nM] |
| --- | --- | --- | --- | --- |
| 1010 | 0.17 | CCCCCCCCCCCCCCCCCCCC(=O)NCCCCCC(=O)N[C@H](C(=O)N[C@@H](CCCCNC(=O)CCOCCOCCOCCOCCOCCOCCOCCOCCOCCOCCOCCOCCOCCOCCOCCOCCOCCOCCOCCOCCOCCOCCOCCOC)C(=O)N1CCN(c2ccc3ncn(CC(=O)N[C@@H](CCCNC(=N)N)C(=O)N[C@@H](Cc4c[nH]cn4)C(=O)N[C@@H](Cc4ccc(O)cc4)C(=O)N[C@@H](CC(C)C)C(=O)N[C@@H](CC(N)=O)C(=O)N[C@@H](Cc4c[nH]c5ccccc45)C(=O)N[C@H](C(=O)N[C@H](C(=O)N[C@@H](CCCNC(=N)N)C(=O)N[C@@H](CCC(N)=O)C(=O)N(C)[C@@H](CCCNC(=N)N)C(=O)N[C@@H](Cc4ccc(O)cc4)C(N)=O)[C@@H](C)O)C(C)C)c(=O)c3c2)CC1)[C@@H](C)CC [Example 35] | – | – |
| > 6000 | 1.29 | CC[C@H](C)[C@H](NC(C)=O)C(=O)N[C@@H](CCCCNC(=O)CCOCCOCCOCCOCCOCCOCCOCCOCCOCCOCCOCCOCCOCCOCCOCCOCCOCCOCCOCCOCCOCCOCCOCCOC)C(=O)N1CCN(c2ccc3ncn(CC(=O)N[C@@H](CCCNC(=N)N)C(=O)N[C@@H](Cc4c[nH]cn4)C(=O)N[C@@H](Cc4ccc(O)cc4)C(=O)N[C@@H](CC(C)C)C(=O)N[C@@H](CC(N)=O)C(=O)N[C@@H](Cc4c[nH]c5ccccc45)C(=O)N[C@H](C(=O)N[C@H](C(=O)N[C@@H](CCCNC(=N)N)C(=O)N[C@@H](CCC(N)=O)C(=O)N(C)[C@@H](CCCNC(=N)N)C(=O)N[C@@H](Cc4ccc(O)cc4)C(N)=O)[C@@H](C)O)C(C)C)c(=O)c3c2)CC1 [Example 21] | – | – |
| > 6000 | 2.3 | CCCCCCCCCCCCCCCCCCCC(=O)N[C@@H](CCS(=O)(=O)O)C(=O)N[C@@H](CCS(=O)(=O)O)C(=O)NCCCC[C@H](NC(=O)[C@@H](NC(=O)CCOCCOCCOCCOCCOCCOCCOCCOCCOCCOCCOCCOCCOCCOCCOCCOCCOCCOCCOCCOCCOCCOCCOCCOC)[C@@H](C)CC)C(=O)N1CCN(c2ccc3ncn(CC(=O)N[C@@H](CCCNC(=N)N)C(=O)NC(Cc4c[nH]cn4)C(=O)N[C@@H](Cc4ccc(O)cc4)C(=O)NC(CC(C)C)C(=O)N[C@@H](CC(N)=O)C(=O)NC(Cc4c[nH]c5ccccc45)C(=O)N[C@H](C(=O)N[C@H](C(=O)N[C@@H](CCCNC(=N)N)C(=O)NC(CCC(N)=O)C(=O)N(C)[C@@H](CCCNC(=N)N)C(=O)NC(Cc4ccc(O)cc4)C(N)=O)[C@@H](C)O)C(C)C)c(=O)c3c2)CC1 (stereo partly drawn) [Example 27] | – | – |
| 1320 | 1.8 | CCCCCCCCCCCCCCCCCCCC(=O)N[C@@H](CCS(=O)(=O)O)C(=O)N[C@@H](CCS(=O)(=O)O)C(=O)NCCCC[C@H](NC(=O)[C@@H](NC(=O)CCOCCOCCOCCOCCOCCOCCOCCOCCOCCOCCOCCOCCOCCOCCOCCOCCOCCOCCOCCOCCOCCOCCOCCOC)[C@@H](C)CC)C(=O)N1CCN(c2ccc3ncn(CC(=O)N[C@@H](CCCNC(N)=O)C(=O)NC(Cc4c[nH]cn4)C(=O)N[C@@H](Cc4ccc(O)cc4)C(=O)NC(CC(C)C)C(=O)N[C@@H](CC(N)=O)C(=O)NC(Cc4c[nH]c5ccccc45)C(=O)N[C@H](C(=O)N[C@H](C(=O)N[C@@H](CCCNC(=N)N)C(=O)NC(CCC(N)=O)C(=O)N(C)[C@@H](CCCNC(=N)N)C(=O)NC(Cc4ccc(O)cc4)C(N)=O)[C@@H](C)O)C(C)C)c(=O)c3c2)CC1 (stereo partly drawn) [Example 28] | – | – |
| > 6000 | 0.14 | CCCCCCCCCCCCCCCC(=O)N[C@@H](CCS(=O)(=O)O)C(=O)N[C@@H](CCS(=O)(=O)O)C(=O)NCCCC[C@H](NC(=O)[C@@H](NC(=O)CCOCCOCCOCCOCCOCCOCCOCCOCCOCCOCCOCCOCCOCCOCCOCCOCCOCCOCCOCCOCCOCCOCCOCCOC)[C@@H](C)CC)C(=O)N1CCN(c2ccc3ncn(CC(=O)N[C@@H](CCCNC(=N)N)C(=O)NC(Cc4c[nH]cn4)C(=O)N[C@@H](Cc4ccc(O)cc4)C(=O)NC(CC(C)C)C(=O)N[C@@H](CC(N)=O)C(=O)NC(Cc4c[nH]c5ccccc45)C(=O)N[C@H](C(=O)N[C@H](C(=O)N[C@@H](CCCNC(=N)N)C(=O)NC(CCC(N)=O)C(=O)N(C)[C@@H](CCCNC(=N)N)C(=O)NC(Cc4ccc(O)cc4)C(N)=O)[C@@H](C)O)C(C)C)c(=O)c3c2)CC1 (stereo partly drawn) [Example 29] | – | – |
| – | – | CC[C@H](C)[C@H](NC(=O)[C@H](CCC(=O)O)NC(=O)[C@H](CCC(=O)O)NC(=O)CCCCCCCCCCCCCCC(=O)O)C(=O)N[C@@H](CCCCNC(=O)CCOCCOCCOCCOCCOCCOCCOCCOCCOCCOCCOCCOCCOCCOCCOCCOC)C(=O)N1CCN(c2ccc3ncn(CC(=O)N[C@@H](CCCNC(=N)N)C(=O)N[C@@H](Cc4c[nH]cn4)C(=O)N[C@@H](Cc4ccc(O)cc4)C(=O)N[C@@H](CC(C)C)C(=O)N[C@@H](CC(N)=O)C(=O)N[C@@H](Cc4c[nH]c5ccccc45)C(=O)N[C@H](C(=O)N[C@H](C(=O)N[C@@H](CCCNC(=N)N)C(=O)N[C@@H](CCC(N)=O)C(=O)N(C)[C@@H](CCCNC(=N)N)C(=O)N[C@@H](Cc4ccc(O)cc4)C(N)=O)[C@@H](C)O)C(C)C)c(=O)c3c2)CC1 [Example 54] | > 6000 | 36 |
